Test results from patent publication US10350271B2, “Lipidated peptides for lowering blood glucose” (USTAV ORGANICKE CHEMIE A BIOCHEMIE AKADEMIE VED CR, V.V.I., priority 2014, dated 2019).
Marks after values point to notes of the source that are not given here. Numbered stars: 1 amine (or outer) side, 2 acyl side, 3 side chain; on linkers, the order of the positions; unused ones are H or OH. Side chains are listed from the residue outwards. Ends that are not written are not given here. Peptide text beside a SMILES is read from it. * marks the point of attachment. γGlu = O=C(O)[C@H](CCC(=O)[*:2])N[*:1]; Palmitoyl = CCCCCCCCCCCCCCCC(=O)*

Tests used:
[1] = system: MAPK/ERK1/2 signaling pathway; conditions: positive control; cited from earlier work
Wistar rats = test: Food intake in fasted rats after SC injection; type: in vivo; conditions: overnight fasted rats, compared to controls given vehicle
Method: (§1) NMRI mice, C57BL/6 mice, and Wistar rats (AnLab, Prague, Czech Republic) were housed in a temperature of 23° C. and a daily cycle of 12 h light and dark (light from 6:00). They were given ad libitum water and a standard chow diet that contained 25, 9 and 66% of calories of protein, fat and carbohydrate respectively. Energy content of the feed was 3.4 kcal/g (St-1, Mlýn Kocanda, Czech Republic). Db/db mice and their controls (C57BL/6 background) were obtained from Taconic (Denmark), housed under the same conditions as described above, and fed by Altromin (Taconic, Denmark). ZDF-Lepr^fa/Crl, diabetic fa/fa male rats were obtained from Charles River (France), housed under same conditions as described above, and fed with a Purina 5008 diet (IPS Product Supplies Limited, UK). All experiments followed the ethical guidelines for animal experiments and the law of the Czech Republic Nr. 246/1992.
In experiments with C57BL/6 mice or Wistar rats, food intake was measured with overnight fasted animals in individual cages. Food was withdrawn 17 hours prior to injection of lipidated analog of prolactin releasing peptide (PrRP); free access to water was maintained. The administration of either saline, PrRP, or lipidated analogs was performed by SC injection at doses of 1-10 mg/kg (which corresponded to a volume of 0.2 ml/mouse and 0.1 ml/100 g weight of rat). Fifteen minutes after the lipidated analog of prolactin releasing peptide (PrRP) administration, the mice were given pre-weighed food. The food was then weighed every 30 minutes for 5-10 hours. The administration of each dose was performed at least twice, and each group of mice consisted of at least 6 mice.

rat PrRP receptor = target: T1, rat PrRP receptor (Rattus norvegicus, UniProt Q64121); test: Competitive binding in RC-4B/C rat pituitary cells (125I-rat PrRP31)
T1 construct: host or cells: RC-4B/C rat pituitary cell line
T1 sequence (Q64121 1-370): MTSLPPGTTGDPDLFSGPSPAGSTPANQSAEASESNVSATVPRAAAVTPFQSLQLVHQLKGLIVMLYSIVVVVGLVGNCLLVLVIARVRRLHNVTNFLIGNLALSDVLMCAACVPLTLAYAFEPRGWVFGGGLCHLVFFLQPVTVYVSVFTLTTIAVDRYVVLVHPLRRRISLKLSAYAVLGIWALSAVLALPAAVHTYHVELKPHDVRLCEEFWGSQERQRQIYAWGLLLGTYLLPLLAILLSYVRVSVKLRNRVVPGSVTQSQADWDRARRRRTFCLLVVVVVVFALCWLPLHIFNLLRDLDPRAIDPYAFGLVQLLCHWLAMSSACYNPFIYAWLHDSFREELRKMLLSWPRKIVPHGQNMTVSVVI
Method in brief: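 Intact rat pituitary RC-4B/C cells incubated 60 min at room temperature with […] rat 125I-PrRP31 and unlabeled analog (10^−11 to 10^−4 mol·l^−1) in HEPES pH 7.4 buffer. Cell-bound radioactivity γ-counted after NaOH lysis; one-site competition fit.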

[2] = target: T2, human PrRP receptor GPR10 (Homo sapiens, UniProt P49683); test: Competitive binding in CHO cells transfected with human GPR10 (human 125I-PrRP31)
T2 construct: host or cells: CHO cells
T2 sequence (P49683 1-370): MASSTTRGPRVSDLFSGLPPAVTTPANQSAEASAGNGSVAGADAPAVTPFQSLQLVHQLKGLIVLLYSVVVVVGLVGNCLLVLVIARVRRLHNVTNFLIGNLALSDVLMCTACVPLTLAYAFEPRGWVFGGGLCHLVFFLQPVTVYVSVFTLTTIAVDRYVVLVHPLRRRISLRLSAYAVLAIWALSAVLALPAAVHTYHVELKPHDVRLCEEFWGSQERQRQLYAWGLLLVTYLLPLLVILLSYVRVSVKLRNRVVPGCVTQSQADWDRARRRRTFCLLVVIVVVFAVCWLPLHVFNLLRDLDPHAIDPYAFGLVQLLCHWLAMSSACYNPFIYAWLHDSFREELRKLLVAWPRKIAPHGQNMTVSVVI
Method in brief: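 GPR10-transfected CHO cells (40-80 thousand/well) incubated 60 min at room temperature with 5×10^-11 mol·l^-1 human 125I-PrRP31 and unlabeled analog at 10^-11 to 10^-4 mol·l^-1 in Tris binding buffer pH 7.4. Cells solubilized in 0.1 mol/l NaOH, γ-counted; one-site nonlinear regression fit.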

C57BL/6 mice = test: Food intake in fasted mice after SC injection; type: in vivo; conditions: 5 mg/kg SC, 45 min after injection
Method in brief: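 Overnight-fasted animals (food removed 17 h before dosing, water available) in individual cages got saline, PrRP or lipidated PrRP analogs SC at 1-10 mg/kg.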

ZDF diabetic rats = test: 21 days repeated administration in diabetic ZDF rats (food intake, OGTT, metabolic parameters); type: in vivo; conditions: for Cumulative food intake Day 1 / Cumulative food intake Day 1-7 / Cumulative food intake Day 1-14 / Cumulative food intake Day 1-21 / Cholesterol / Insulin / Leptin: ZDF rats
Method: (§2) Rats were subjected to a 21-day food intake experiment. ZDF rats were IP injected with either phosphate-buffered saline pH6 (control) or compound 43 or 52 at a dose of 1 and 5 mg/kg (n=8), twice a day for 21 days. After 21 days of treatment, rats were fasted overnight and OGTT was performed. After initial blood glucose measurement, 2 g/kg glucose solution was administered by oral gavage. Blood glucose was then measured at 15, 30, 60, 90, 120 and 180 min.
as §1
The ZDF rats were treated with vehicle or analogs 43 and 52 (1 and 5 mg/kg IP) dissolved in phosphate buffered saline, pH 6, twice daily for 21 days and sacrificed on day 22. Food intake was measured daily up to day 22. Leptin, insulin, cholesterol and HbA1c levels were measured on day 21. Glucose tolerance test (OGTT) was also performed on day 21.
as §2, with “min. […] The statistical significance, denoted by the asterisk (*), was *P<0.05.” for “min.”

Compound: PrRP31: prolactin-releasing peptide composed of 31 amino acids, positive control; rat or human form not stated (SRAHQHSMETRTPDINPAWYTGRGIRPVGRF-NH2; ends and bridges not checked)
- Initiation of MAPK/ERK1/2 signaling [1]: shown to initiate MAPK/ERK1/2 signaling

Compound: CCCCCCCCCCCCCCCC(=O)N[C@@H](CCC(=O)NCCCC[C@H](NC(=O)[C@@H](NC(=O)[C@H](CCC(=O)O)NC(=O)[C@H](CCSC)NC(=O)[C@H](CO)NC(=O)[C@H](Cc1c[nH]cn1)NC(=O)[C@H](CCCNC(=N)N)NC(=O)[C@H](Cc1c[nH]cn1)NC(=O)[C@@H](NC(=O)[C@H](CCCNC(=N)N)NC(=O)[C@@H](N)CO)[C@@H](C)O)[C@@H](C)CC)C(=O)N[C@H](C(=O)N1CCC[C@H]1C(=O)N[C@@H](CC(=O)O)C(=O)N[C@H](C(=O)N[C@@H](CC(N)=O)C(=O)N1CCC[C@H]1C(=O)N[C@@H](C)C(=O)N[C@@H](Cc1c[nH]c2ccccc12)C(=O)N[C@@H](Cc1ccc(O)cc1)C(=O)N[C@@H](C)C(=O)N[C@@H](CO)C(=O)N[C@@H](CCCNC(=N)N)C(=O)NCC(=O)N[C@H](C(=O)N[C@@H](CCCNC(=N)N)C(=O)N1CCC[C@H]1C(=O)N[C@H](C(=O)NCC(=O)N[C@@H](CCCNC(=N)N)C(=O)N[C@@H](Cc1ccccc1)C(N)=O)C(C)C)[C@@H](C)CC)[C@@H](C)CC)[C@@H](C)O)C(=O)O [Analog 52] (H-SRTHRHSMEIK([γGlu-Palmitoyl])TPDINPAWYASRGIRPVGRF-NH2)
- Food intake in rats (Wistar rats): significantly reduced
- Ki (rat PrRP receptor): 4.23 ± 2.11 nM
- % of PrRP31, RC-4B/C rat pituitary cells (rat PrRP receptor; affinity relative to PrRP31): 57%
- Ki [2]: 5.95 ± 0.72 nM
- % of PrRP31, GPR10 human receptor transfected in CHO cells ([2]; affinity relative to PrRP31): 65%
- Food intake in mice % of saline-treated group (C57BL/6 mice): 10%
- Food intake in free fed ZDF diabetic rats (ZDF diabetic rats; 5 mg/kg IP twice daily, vs vehicle): significantly lowered
- Cumulative food intake Day 1 (ZDF diabetic rats; 1 mg/kg IP twice daily): 43.0 ± 2.2 g
- Cumulative food intake Day 1-7 (ZDF diabetic rats; 1 mg/kg IP twice daily): 306.9 ± 11.8 g
- Cumulative food intake Day 1-14 (ZDF diabetic rats; 1 mg/kg IP twice daily): 570.9 ± 17.1 g
- Cumulative food intake Day 1-21 (ZDF diabetic rats; 1 mg/kg IP twice daily): 811.5 ± 23.6 g
- Cumulative food intake Day 1 (ZDF diabetic rats; 5 mg/kg IP twice daily): 42.4 ± 2.1 g
- Cumulative food intake Day 1-7 (ZDF diabetic rats; 5 mg/kg IP twice daily): 287.8 ± 12.5* g
- Cumulative food intake Day 1-14 (ZDF diabetic rats; 5 mg/kg IP twice daily): 559.0 ± 21.0* g
- Cumulative food intake Day 1-21 (ZDF diabetic rats; 5 mg/kg IP twice daily): 814.8 ± 26.1 g
- Cholesterol (ZDF diabetic rats; day 21, 1 mg/kg IP twice daily): 3.71 ± 0.16 mmol/L
- Insulin (ZDF diabetic rats; day 21, 1 mg/kg IP twice daily): 268.94 ± 43.40 pmol/L
- Leptin (ZDF diabetic rats; day 21, 1 mg/kg IP twice daily): 16336 ± 1466 pg/mL
- Cholesterol (ZDF diabetic rats; day 21, 5 mg/kg IP twice daily): 3.19 ± 0.16 mmol/L
- Insulin (ZDF diabetic rats; day 21, 5 mg/kg IP twice daily): 183.35 ± 37.49 pmol/L
- Leptin (ZDF diabetic rats; day 21, 5 mg/kg IP twice daily): 11372 ± 427 pg/mL
